{"source": "patent US12728111B2", "about": "“Electrophilic compounds and electrophilic prodrugs for treating aneurysm” (University of Pittsburgh—Of the Commonwealth System of …, priority 2020, dated 2026)", "tested_on": "circulating MCP1 and IL6", "experiment": "Circulating cytokine ELISA in AAA model mice", "assay_type": "in vivo, mouse", "text": "FIG. 2. […] (A) Quantification of gene expression levels in the mice suprarenal aorta region by real-time PCR (n=3 to 4). (B, C) Serum cytokines levels measured by ELISA (n=8 to 11). (D) FACS of single cells isolated from the mice suprarenal aorta region. Each sample is the pool of cells from three mice (n=3). (E, F) Quantification of the percentage of CD45+ leukocytes and CD64+, CD11c+M1-like macrophages in total cells from the FACS analysis. Ordinary one-way ANOVA followed by Tukey's test was performed for (A), (E) and (F). For ELISA in (B) and (C), to avoid the effect of the non-detected data point, a non-parametric Kruskal-Wallis test followed by Dunn's multiple comparisons was performed by adding zero to the missing data point. Data presented as mean±SEM. A p<0.05 for both the main test and post hoc test was considered statistically significant.\nMCP1, TNFα and IL6 levels in mouse plasma were measured by ELISA performed by the Cancer Center Immunology Core at the University of Michigan."}
{"smiles": "CCCCCCCCC(=CCCCCCCCC(=O)O)[N+](=O)[O-]", "note": "[NO2—OA, 10-nitro-octadec-9-enoic acid]", "values": [{"measurement": "protein level of circulating IL6", "value": "significantly decreased"}, {"measurement": "protein level of circulating MCP1", "value": "significantly decreased"}]}
